The source of these data is article PMC7450990 (Journal of medicinal chemistry, 2019).

Series [1] has as its system Hh pathway (endogenous Gli1 mRNA levels), ASZ-001 cells. As to the kind of experiment: cells. The settings on record: Mus musculus, ASZ001, 48 h, read-out: IC50 (Hh pathway inhibition, Gli1 mRNA), ASZ-001 cells, 48 h incubation, Mean ± SEM.
The next series can be described thus: Metabolic stability. The note with it: human, microsomes.
For the next series, the target named is CYP3A4 (Homo sapiens, UniProt P08684). As to the kind of experiment: CYP3A4 inhibition.
Sequence of CYP3A4 (P08684 whole entry): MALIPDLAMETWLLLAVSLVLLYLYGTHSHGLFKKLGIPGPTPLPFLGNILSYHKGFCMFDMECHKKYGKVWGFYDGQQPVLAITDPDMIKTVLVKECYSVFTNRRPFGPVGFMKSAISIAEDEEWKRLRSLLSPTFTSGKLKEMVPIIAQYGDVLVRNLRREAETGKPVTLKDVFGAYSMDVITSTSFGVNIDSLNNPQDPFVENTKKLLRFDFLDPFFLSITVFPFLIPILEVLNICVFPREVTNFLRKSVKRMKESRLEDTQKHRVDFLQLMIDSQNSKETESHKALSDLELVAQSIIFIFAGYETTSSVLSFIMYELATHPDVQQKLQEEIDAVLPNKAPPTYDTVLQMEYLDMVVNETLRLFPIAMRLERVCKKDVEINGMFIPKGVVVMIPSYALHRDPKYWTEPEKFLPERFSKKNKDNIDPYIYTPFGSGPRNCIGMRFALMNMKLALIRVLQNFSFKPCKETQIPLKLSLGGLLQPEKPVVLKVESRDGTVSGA
For series [2], the system named is Hh pathway (endogenous Gli1 mRNA levels), ASZ-001 cells. The settings on record: at the concentrations tested.
Series [3] has as its target T1, Breast Cancer Resistance Protein (BCRP) (Homo sapiens, UniProt Q9UNQ0).
T1 sequence (Q9UNQ0 1-655): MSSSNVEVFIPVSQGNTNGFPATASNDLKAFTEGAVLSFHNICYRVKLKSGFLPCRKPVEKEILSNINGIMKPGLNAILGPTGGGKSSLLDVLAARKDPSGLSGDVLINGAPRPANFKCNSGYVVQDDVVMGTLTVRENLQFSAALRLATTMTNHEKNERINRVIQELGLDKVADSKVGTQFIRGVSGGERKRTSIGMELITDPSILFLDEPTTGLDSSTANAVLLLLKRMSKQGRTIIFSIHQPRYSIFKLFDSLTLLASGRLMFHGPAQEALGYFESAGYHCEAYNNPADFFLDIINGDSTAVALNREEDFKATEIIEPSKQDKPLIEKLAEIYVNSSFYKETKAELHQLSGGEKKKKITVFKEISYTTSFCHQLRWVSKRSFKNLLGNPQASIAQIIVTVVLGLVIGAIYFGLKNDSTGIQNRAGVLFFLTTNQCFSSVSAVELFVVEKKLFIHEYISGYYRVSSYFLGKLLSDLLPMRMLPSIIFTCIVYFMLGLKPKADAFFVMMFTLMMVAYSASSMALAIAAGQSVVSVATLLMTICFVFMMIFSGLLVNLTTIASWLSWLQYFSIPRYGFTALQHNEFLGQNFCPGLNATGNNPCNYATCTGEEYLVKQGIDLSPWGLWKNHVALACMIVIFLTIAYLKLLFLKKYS
In words: Efflux pump substrate, BCRP. Format: in vitro ADME.

Another series concerns the target P-glycoprotein (P-gp) (Homo sapiens, UniProt P08183). In words: Efflux pump substrate, P-gp. Format: in vitro ADME.
Series [4] in a line: Parallel artificial membrane permeability assay. The settings on record: hexadecane membrane.

Sequence of P-glycoprotein (P-gp) (P08183 whole entry): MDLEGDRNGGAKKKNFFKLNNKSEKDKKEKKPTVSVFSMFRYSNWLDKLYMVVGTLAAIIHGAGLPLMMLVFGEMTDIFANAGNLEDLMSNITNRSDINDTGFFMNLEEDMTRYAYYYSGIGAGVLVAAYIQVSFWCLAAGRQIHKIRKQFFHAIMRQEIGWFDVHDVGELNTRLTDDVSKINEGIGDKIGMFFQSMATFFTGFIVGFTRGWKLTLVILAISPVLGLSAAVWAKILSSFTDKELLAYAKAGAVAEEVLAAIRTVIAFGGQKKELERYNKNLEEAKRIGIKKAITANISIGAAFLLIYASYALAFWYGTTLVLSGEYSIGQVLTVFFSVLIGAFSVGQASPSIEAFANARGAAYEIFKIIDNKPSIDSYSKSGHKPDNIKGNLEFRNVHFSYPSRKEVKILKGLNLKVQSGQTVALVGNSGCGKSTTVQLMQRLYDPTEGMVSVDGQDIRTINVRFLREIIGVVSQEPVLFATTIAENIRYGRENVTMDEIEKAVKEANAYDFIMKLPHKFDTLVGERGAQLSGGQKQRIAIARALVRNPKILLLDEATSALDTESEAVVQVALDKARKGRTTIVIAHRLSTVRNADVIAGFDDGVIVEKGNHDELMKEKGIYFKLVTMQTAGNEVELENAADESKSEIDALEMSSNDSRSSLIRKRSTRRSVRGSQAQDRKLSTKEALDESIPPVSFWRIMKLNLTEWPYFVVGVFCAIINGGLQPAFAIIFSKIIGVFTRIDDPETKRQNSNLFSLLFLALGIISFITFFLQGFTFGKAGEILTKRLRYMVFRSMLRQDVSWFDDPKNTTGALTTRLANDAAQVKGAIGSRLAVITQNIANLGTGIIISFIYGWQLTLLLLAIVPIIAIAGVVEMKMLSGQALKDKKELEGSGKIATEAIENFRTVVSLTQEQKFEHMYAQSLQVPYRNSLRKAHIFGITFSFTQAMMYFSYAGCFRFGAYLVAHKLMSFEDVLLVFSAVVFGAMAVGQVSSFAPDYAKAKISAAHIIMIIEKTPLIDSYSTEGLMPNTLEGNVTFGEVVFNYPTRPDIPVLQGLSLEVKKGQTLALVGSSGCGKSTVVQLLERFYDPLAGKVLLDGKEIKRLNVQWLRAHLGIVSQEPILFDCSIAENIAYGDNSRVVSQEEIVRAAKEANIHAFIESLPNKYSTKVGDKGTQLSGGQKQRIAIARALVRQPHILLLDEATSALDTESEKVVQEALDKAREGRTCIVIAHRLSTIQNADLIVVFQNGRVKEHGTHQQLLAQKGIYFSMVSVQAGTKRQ

What is called IC50 is the concentration at which inhibition is half-maximal. Take `C[C@]1(c2ccc(Cl)cc2Cl)OC[C@@H](COc2ccc(N3CCN(c4ccc(NC(=O)c5ccc6ccccc6c5)cc4)CC3)cc2)O1` [Compound 16, N-(4-(4-(4-(((2S,4R)-2-(2,4-dichlorophenyl)-2-methyl-1,3-dioxolan-4-yl)methoxy)phenyl)piperazin-1-yl)phenyl)-2-naphthamide]: the half-inhibitory concentration (IC50) in series [1] is above 10 µM.
The microsomal CLint is a measure of how fast metabolising enzymes remove a compound, apart from limits set by blood flow. Low values mean slow turnover, high ones rapid turnover. `C[C@@]1(c2ccc(Cl)cc2Cl)OC[C@@H](COc2ccc(N3CCN(c4ccc(NC(=O)c5cccc(O)c5)cc4)CC3)cc2)O1` [Compound 27, N-(4-(4-(4-(((2R,4R)-2-(2,4-dichlorophenyl)-2-methyl-1,3-dioxolan-4-yl)methoxy)phenyl)piperazin-1-yl)phenyl)-3-hydroxybenzamide] had a microsomal CLint in the series “Metabolic stability” below 3 µL/min/mg. In addition, on CYP3A4, the IC50 was above 30 µM.
Consider `C[C@]1(c2ccc(Cl)cc2Cl)OC[C@@H](COc2ccc(N3CCN(c4ccc(NC(=O)c5ccoc5)cc4)CC3)cc2)O1` [Compound 35, N-(4-(4-(4-(((2S,4R)-2-(2,4-dichlorophenyl)-2-methyl-1,3-dioxolan-4-yl)methoxy)phenyl)piperazin-1-yl)phenyl)furan-3-carboxamide], for which, in series [2], the “Hh pathway inhibition, result in words” value was “inactive”.
At CYP3A4, `C[C@]1(c2ccc(Cl)cc2Cl)OC[C@@H](COc2ccc(N3CCN(c4ccc(NC(=O)c5cccnc5)cc4)CC3)cc2)O1` [Compound 18, N-(4-(4-(4-(((2S,4R)-2-(2,4-dichlorophenyl)-2-methyl-1,3-dioxolan-4-yl)methoxy)phenyl)piperazin-1-yl)phenyl)nicotinamide] registered an IC50 above 20 µM.
For the compound `C[C@@]1(c2ccc(Cl)cc2Cl)OC[C@@H](COc2ccc(N3CCN(c4ccc(NC(=O)c5ccc6ccccc6c5)cc4)CC3)cc2)O1` [Compound 11, N-(4-(4-(4-(((2R,4R)-2-(2,4-dichlorophenyl)-2-methyl-1,3-dioxolan-4-yl)methoxy)phenyl)piperazin-1-yl)phenyl)-2-naphthamide], the IC50 in series [1] was above 10 µM.
For `C[C@]1(c2ccc(Cl)cc2Cl)OC[C@@H](COc2ccc(N3CCN(c4ccc(NC(=O)c5ccccc5)cc4)CC3)cc2)O1` [Compound 15, N-(4-(4-(4-(((2S,4R)-2-(2,4-dichlorophenyl)-2-methyl-1,3-dioxolan-4-yl)methoxy)phenyl)piperazin-1-yl)phenyl)benzamide], the IC50 in series [1] was above 10 µM.
The half-life is the time in which the quantity being followed falls by half. In the series “Metabolic stability”, `CCC(C)n1ncn(-c2ccc(N3CCN(c4ccc(OCC5COC(Cn6cncn6)(c6ccc(Cl)cc6Cl)O5)cc4)CC3)cc2)c1=O` (stereo not shown) [ITZ, Itraconazole] had a half-life of 27 ± 6.2 min. The “Efflux Pump Substrates, BCRP” value in series [3] was “not a substrate”. The “Efflux Pump Substrates, P-gp” value at P-glycoprotein (P-gp) is on record as “not a substrate”.
`CC[C@@H](C)n1ncn(-c2ccc(N3CCN(c4ccc(OC[C@@H]5CO[C@](C)(c6ccc(Cl)cc6Cl)O5)cc4)CC3)cc2)c1=O` [Compound 2a] displayed an IC50 against CYP3A4 above 20 µM.
As to `C[C@@]1(c2ccc(Cl)cc2Cl)OC[C@@H](COc2ccc(N3CCN(c4ccc(NC(=O)c5cccnc5)cc4)CC3)cc2)O1` [Compound 13, N-(4-(4-(4-(((2R,4R)-2-(2,4-dichlorophenyl)-2-methyl-1,3-dioxolan-4-yl)methoxy)phenyl)piperazin-1-yl)phenyl)nicotinamide], the “PAMPA -log Pe” value in series [4] stood at 7.9 ± 0.03. This compound also returned an IC50 on CYP3A4 above 30 µM.
As for `CC[C@@H](C)n1ncn(-c2ccc(N3CCN(c4ccc(OC[C@@H]5CO[C@@](C)(c6ccc(Cl)cc6Cl)O5)cc4)CC3)cc2)c1=O` [Compound 2b], in series [4], the “PAMPA -log Pe” value is reported as 9.0. Besides, the half-inhibitory concentration (IC50) on CYP3A4 came out at 1.02 µM.
Turning to `C[C@@]1(c2ccc(Cl)cc2Cl)OC[C@@H](COc2ccc(N3CCN(c4ccc(NC(=O)c5ccccc5)cc4)CC3)cc2)O1` [Compound 10, N-(4-(4-(4-(((2R,4R)-2-(2,4-dichlorophenyl)-2-methyl-1,3-dioxolan-4-yl)methoxy)phenyl)piperazin-1-yl)phenyl)benzamide], the IC50 in series [1] is above 10 µM.
On to `C[C@]1(c2ccc(Cl)cc2Cl)OC[C@@H](COc2ccc(N3CCN(c4ccc(NC(=O)c5ccncc5)cc4)CC3)cc2)O1` [Compound 19, N-(4-(4-(4-(((2S,4R)-2-(2,4-dichlorophenyl)-2-methyl-1,3-dioxolan-4-yl)methoxy)phenyl)piperazin-1-yl)phenyl)isonicotinamide], for which, in series [1], the IC50 is above 10 µM.
With `C[C@]1(c2ccc(Cl)cc2Cl)OC[C@@H](COc2ccc(N3CCN(c4ccc(NC(=O)c5ccsc5)cc4)CC3)cc2)O1` [Compound 36, N-(4-(4-(4-(((2S,4R)-2-(2,4-dichlorophenyl)-2-methyl-1,3-dioxolan-4-yl)methoxy)phenyl)piperazin-1-yl)phenyl)thiophene-3-carboxamide], in series [2], the “Hh pathway inhibition, result in words” value is “inactive”.
Consider `C[C@@]1(c2ccc(Cl)cc2Cl)OC[C@@H](COc2ccc(N3CCN(c4ccc(NC(=O)c5ccncc5)cc4)CC3)cc2)O1` [Compound 14, N-(4-(4-(4-(((2R,4R)-2-(2,4-dichlorophenyl)-2-methyl-1,3-dioxolan-4-yl)methoxy)phenyl)piperazin-1-yl)phenyl)isonicotinamide], for which the IC50 in series [1] is above 10 µM.
